# Measured values from US9688624B2, “DP2 antagonist and uses thereof” (Brickell Biotech, Inc., priority 2010, dated 2017).
# How the values were obtained:
# [1] = Metabolites of Compound 1 (active metabolites)
# Method: Compound 1 metabolites formed during incubation of Compound 1 with rat, dog, and human liver microsomes, rat and human hepatocytes, as well as those generated in vivo and isolated from rat bile and rat and dog plasma have been investigated. Authentic standards of the majority of the metabolites have been chemically synthesized. The identity of the in vitro and in vivo metabolites were confirmed by comparison with the authentic standard and/or by the fragmentation pattern observed following LC-MS/MS analysis.
# CYP2C19 = CYP2C19 (Homo sapiens (Human), UniProt P33261); assay: Extracellular cytochrome P450 inhibition (microsomes); settings: 2C19, mephenytoin 4′-hydroxylation
# Sequence of CYP2C19 (P33261 whole entry): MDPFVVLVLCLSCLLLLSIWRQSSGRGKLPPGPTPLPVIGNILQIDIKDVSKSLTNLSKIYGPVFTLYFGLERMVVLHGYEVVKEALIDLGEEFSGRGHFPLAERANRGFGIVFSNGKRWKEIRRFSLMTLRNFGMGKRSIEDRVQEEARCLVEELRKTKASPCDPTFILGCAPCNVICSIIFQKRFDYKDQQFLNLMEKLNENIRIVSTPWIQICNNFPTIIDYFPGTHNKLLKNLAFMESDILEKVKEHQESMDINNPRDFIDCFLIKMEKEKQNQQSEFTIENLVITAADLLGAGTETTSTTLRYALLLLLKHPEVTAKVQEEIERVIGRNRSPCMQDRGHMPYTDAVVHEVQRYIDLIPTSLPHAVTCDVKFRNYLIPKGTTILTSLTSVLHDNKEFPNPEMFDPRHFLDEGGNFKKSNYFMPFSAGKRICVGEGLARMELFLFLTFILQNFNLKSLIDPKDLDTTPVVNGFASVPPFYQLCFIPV
SMILES,activity of metabolite [1],IC50 (CYP2C19)
"CC(C)(C)C(=O)Nc1ccc(Oc2cc(CC(=O)O)ccc2O)c(C[S+]([O-])C(C)(C)C)c1 (centres unmarked) [Compound M5, 2-(3-(2-(tert-butylsulfinylmethyl)-4-pivalamidophenoxy)-4-hydroxyphenyl)acetic acid]",active,–
"CC(C)(C)SCc1cc(NC(=O)C(C)(C)C)ccc1Oc1cc(CC(=O)O)ccc1O [Compound M3, 2-(3-(2-(tert-butylthiomethyl)-4-pivalamidophenoxy)-4-hydroxyphenyl)acetic acid]",active,–
"COc1ccc(CC(=O)O)cc1Oc1ccc(NC(=O)C(C)(C)C)cc1CS(=O)(=O)C(C)(C)C [Compound M2, 2-(3-(2-(tert-butylsulfonylmethyl)-4-pivalamidophenoxy)-4-methoxyphenyl)acetic acid]",active,–
"CCC1(c2ccccc2)C(=O)NC(=O)N(Cc2ccccc2)C1=O (single isomer, unassigned; (-)) [(-)-N-3-benzyl-phenobarbital, reference compound]",–,8.7 µM
"COc1ccc(CC(=O)O)cc1Oc1ccc(NC(=O)C(C)(C)C)cc1C[S+]([O-])C(C)(C)C (centres unmarked) [Compound M1, 2-(3-(2-(tert-butylsulfinylmethyl)-4-pivalamidophenoxy)-4-methoxyphenyl)acetic acid]",active,–
